Data from patent US11414424B2, “Cardiac sarcomere inhibitors” (Cytokinetics, Inc., priority 2018, dated 2022).

system: bovine cardiac myofibrils; test: Myofibril assay: PK/LDH-coupled steady-state ATPase activity of skinned bovine cardiac myofibrils; assay type: biochemical; settings: Ca2+ activating to 75% of maximal rate
Method in brief: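 Steady-state ATPase of detergent-skinned bovine left-ventricular myofibrils (1 mg/mL), PK/LDH-coupled NADH read at 340 nm, in PIPES/MgCl2 buffer pH 6.8 with 50 μM ATP, 0.6 mM EGTA and CaCl2 set for 50% or 75% activation. Inhibition of activity measured.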

| Compound | CDMF75 IC15 |
| --- | --- |
| N#Cc1ccc(N2CC(=O)N(Cc3ccc(Cl)cc3)[C@]3(CCN(C=O)C3)C2=O)c(F)c1 [Compound 220, (S)-4-(6-(4-chlorobenzyl)-2-formyl-7,10-dioxo-2,6,9-triazaspiro[4.5]decan-9-yl)-3-fluorobenzonitrile] | 0.8 µM |
| CC(C)C(=O)N1CC[C@]2(C1)C(=O)N(c1ccc(C#N)cc1F)CC(=O)N2Cc1ccc(Cl)cc1 [Compound 221, (S)-4-(6-(4-chlorobenzyl)-2-isobutyryl-7,10-dioxo-2,6,9-triazaspiro[4.5]decan-9-yl)-3-fluorobenzonitrile] | 4.1 µM |
| CC(C)C(=O)N1CC[C@]2(C1)C(=O)N(c1ccc(C#N)cc1F)CC(=O)N2Cc1ccc(C(F)(F)F)cc1 [Compound 223, (S)-3-fluoro-4-(2-isobutyryl-7,10-dioxo-6-(4-(trifluoromethyl)benzyl)-2,6,9-triazaspiro[4.5]decan-9-yl)benzonitrile] | 2.3 µM |
| CC(=O)N1CC[C@]2(C1)C(=O)N(c1ccc(OC(F)F)cc1)CC(=O)N2Cc1ccc(Cl)cc1 [Compound 224, (S)-2-acetyl-6-(4-chloro-benzyl)-9-(4-(difluoro-methoxy)phenyl)-2,6,9-triazaspiro[4.5]decane-7,10-dione] | 12.1 µM |
| COc1ccc(N2CC(=O)N(Cc3ccc(Cl)cc3)[C@]3(CCN(C(C)=O)C3)C2=O)nc1 [Compound 225, (S)-2-acetyl-6-(4-chloro-benzyl)-9-(5-methoxy-pyridin-2-yl)-2,6,9-triazaspiro[4.5]decane-7,10-dione] | 29.6 µM |
| N#Cc1ccc(N2CC(=O)N(Cc3ccc(Cl)cc3)[C@]3(C[C@@H](C(N)=O)C3)C2=O)c(F)c1 [Compound 266, (2s,4s)-5-(4-chlorobenzyl)-8-(4-cyano-2-fluorophenyl)-6,9-dioxo-5,8-diazaspiro-[3.5]nonane-2-carboxamide] | 0.7 µM |
| CC1(CO)C(=O)N(c2ccc(C#N)cc2F)CC(=O)N1Cc1ccc(C(F)(F)F)cc1 (stereo not shown) [Compound 269, 3-fluoro-4-(3-(hydroxy-methyl)-3-methyl-2,5-dioxo-4-(4-(trifluoro-methyl)benzyl)piperazin-1-yl)benzonitrile] | 1.2 µM |
| CC1(CO)C(=O)N(c2ccc(Cl)cc2F)CC(=O)N1Cc1ccc(C(F)(F)F)cc1 (stereo not shown) [Compound 270, 1-(4-chloro-2-fluorophenyl)-3-(hydroxymethyl)-3-methyl-4-(4-(trifluoro-methyl)benzyl)piperazine-2,5-dione] | 1.9 µM |
| O=C1CN(c2ccc(Cl)cc2F)C(=O)C2(CC2)N1Cc1ccc(C(F)(F)F)cc1 [Compound 271, 7-(4-chloro-2-fluorophenyl)-4-(4-(trifluoromethyl)-benzyl)-4,7-diazaspiro-[2.5]octane-5,8-dione] | 0.6 µM |
| O=C1CN(c2ccc(Cl)cc2F)C(=O)C2(CCC2)N1Cc1ccc(C(F)(F)F)cc1 [Compound 272, 8-(4-chloro-2-fluorophenyl)-5-(4-(trifluoromethyl)-benzyl)-5,8-diazaspiro-[3.5]nonane-6,9-dione] | 0.5 µM |
| CC1(C)C(=O)N(c2ccc(Cl)cc2F)CC(=O)N1Cc1ccc(C(F)(F)F)cc1 [Compound 273, 1-(4-chloro-2-fluorophenyl)-3,3-dimethyl-4-(4-(trifluoromethyl)benzyl)-piperazine-2,5-dione] | 1.8 µM |
| O=C1CN(c2ccc(Cl)cc2F)C(=O)C2(COC2)N1Cc1ccc(C(F)(F)F)cc1 [Compound 274, 8-(4-chloro-2-fluorophenyl)-5-(4-(trifluoromethyl)-benzyl)-2-oxa-5,8-diazaspiro[3.5]nonane-6,9-dione] | 1.0 µM |
| C[C@@H]1C(=O)N(c2ccc(Cl)cc2F)CC(=O)N1Cc1ccc(C(F)(F)F)cc1 [Compound 275, (R)-1-(4-chloro-2-fluoro-phenyl)-3-methyl-4-(4-(trifluoromethyl)benzyl)-piperazine-2,5-dione] | 6.0 µM |
| C[C@H]1C(=O)N(c2ccc(Cl)cc2F)CC(=O)N1Cc1ccc(C(F)(F)F)cc1 [Compound 276, (S)-1-(4-chloro-2-fluoro-phenyl)-3-methyl-4-(4-(trifluoromethyl)benzyl)-piperazine-2,5-dione] | 3.0 µM |
| O=C1CN(c2ccc(Cl)cc2F)C(=O)CN1Cc1ccc(C(F)(F)F)cc1 [Compound 277, 1-(4-chloro-2-fluorophenyl)-4-(4-(trifluoromethyl)-benzyl)piperazine-2,5-dione] | 32.7 µM |
| CC1(C)C(=O)N(c2ccc(C#N)cc2F)CC(=O)N1Cc1ccc(C(F)(F)F)cc1 [Compound 279, 4-(3,3-dimethyl-2,5-dioxo-4-(4-(trifluoromethyl)-benzyl)piperazin-1-yl)-3-fluorobenzonitrile] | 1.2 µM |
| N#Cc1ccc(N2CC(=O)N(Cc3ccc(C(F)(F)F)cc3)C3(COC3)C2=O)c(F)c1 [Compound 280, 4-(6,9-dioxo-5-(4-(trifluoromethyl)benzyl)-2-oxa-5,8-diazaspiro[3.5]-nonan-8-yl)-3-fluorobenzonitrile] | 0.9 µM |

| Compound | CDMF75 IC15 |
| --- | --- |
| O=C1C(C2COC2)N(Cc2ccc(C(F)(F)F)cc2)C(=O)CN1c1ccc(Cl)cc1F (stereo not shown) [Compound 281, 1-(4-chloro-2-fluorophenyl)-3-(oxetan-3-yl)-4-(4-(trifluoromethyl)benzyl)-piperazine-2,5-dione] | 4.3 µM |
| N#Cc1ccc(N2CC(=O)N(Cc3ccc(C(F)(F)F)cc3)C(C3COC3)C2=O)c(F)c1 (stereo not shown) [Compound 282, 3-fluoro-4-(3-(oxetan-3-yl)-2,5-dioxo-4-(4-(trifluoromethyl)benzyl)-piperazin-1-yl)benzonitrile] | 3.8 µM |
| CC(C)[C@H]1C(=O)N(c2ccc(C#N)cc2F)CC(=O)N1Cc1ccc(C(F)(F)F)cc1 [Compound 283, (S)-3-fluoro-4-(3-isopropyl-2,5-dioxo-4-(4-(trifluoromethyl)benzyl)-piperazin-1-yl)benzonitrile] | 0.6 µM |
| N#Cc1ccc(N2CC(=O)N(Cc3ccc(C(F)(F)F)cc3)[C@@H](C3CCC3)C2=O)c(F)c1 [Compound 284, (S)-4-(3-cyclobutyl-2,5-dioxo-4-(4-(trifluoromethyl)benzyl)piperazin-1-yl)-3-fluorobenzonitrile] | 0.5 µM |
| CC(C)(C)OC[C@H]1C(=O)N(c2ccc(C#N)cc2F)CC(=O)N1Cc1ccc(C(F)(F)F)cc1 [Compound 285, (S)-4-(3-(tert-butoxymethyl)-2,5-dioxo-4-(4-(trifluoro-methyl)benzyl)piperazin-1-yl)-3-fluorobenzonitrile] | 8.3 µM |
| N#Cc1ccc(N2CC(=O)N(Cc3ccc(C(F)(F)F)cc3)C3(CCOC3)C2=O)c(F)c1 (stereo not shown) [Compound 286, 4-(7,10-dioxo-6-(4-(trifluoromethyl)benzyl)-2-oxa-6,9-diazaspiro[4.5]decan-9-yl)-3-fluorobenzonitrile] | 0.7 µM |
| N#Cc1ccc(N2CC(=O)N(Cc3ccc(C(F)(F)F)cc3)[C@@H](CO)C2=O)c(F)c1 [Compound 287, (S)-3-fluoro-4-(3-(hydroxymethyl)-2,5-dioxo-4-(4-(trifluoromethyl)-benzyl)piperazin-1-yl)-benzonitrile] | 3.2 µM |
| CC(C)N1CC(=O)N(Cc2ccc(Cl)cn2)C(c2ccc(Cl)cc2)C1=O (stereo not shown) [Compound 293, 3-(4-chlorophenyl)-4-((5-chloropyridin-2-yl)methyl)-1-isopropylpiperazine-2,5-dione] | 36.0 µM |
| CC(C)N1CC(=O)N(Cc2ccccc2)C(c2ccc(Cl)cc2)C1=O (stereo not shown) [Compound 294, 4-benzyl-3-(4-chlorophenyl)-1-isopropylpiperazine-2,5-dione] | 33.3 µM |
| CC(C)N1CC(=O)N(Cc2ccc(Cl)cc2)C(c2ccc(Cl)cn2)C1=O (stereo not shown) [Compound 297, 4-(4-chlorobenzyl)-3-(5-chloropyridin-2-yl)-1-isopropylpiperazine-2,5-dione] | 11.6 µM |
| CC(C)N1CC(=O)N(Cc2cccc(Cl)c2)C(c2ccc(Cl)cc2)C1=O (stereo not shown) [Compound 298, 4-(3-chlorobenzyl)-3-(4-chlorophenyl)-1-isopropylpiperazine-2,5-dione] | 5.4 µM |
| CC(C)N1CC(=O)N(Cc2cccc(F)c2)C(c2ccc(Cl)cc2)C1=O (stereo not shown) [Compound 299, 3-(4-chlorophenyl)-4-(3-fluorobenzyl)-1-isopropylpiperazine-2,5-dione] | 7.0 µM |
| Cc1ccccc1CN1C(=O)CN(C(C)C)C(=O)C1c1ccc(Cl)cc1 (stereo not shown) [Compound 300, 3-(4-chlorophenyl)-1-isopropyl-4-(2-methylbenzyl)piperazine-2,5-dione] | 28.3 µM |
| CC(C)N1CC(=O)N(Cc2ccccc2C#N)C(c2ccc(Cl)cc2)C1=O (stereo not shown) [Compound 301, 2-((2-(4-chlorophenyl)-4-isopropyl-3,6-dioxo-piperazin-1-yl)methyl)-benzonitrile] | 18.6 µM |
| CC(C)N1CC(=O)N(Cc2ccccc2Cl)C(c2ccc(Cl)cc2)C1=O (stereo not shown) [Compound 302, 4-(2-chlorobenzyl)-3-(4-chlorophenyl)-1-isopropylpiperazine-2,5-dione] | 15.2 µM |
| CC(C)N1CC(=O)N(Cc2ccc(F)cc2)C(c2ccc(Cl)cc2)C1=O (stereo not shown) [Compound 303, 3-(4-chlorophenyl)-4-(4-fluorobenzyl)-1-isopropylpiperazine-2,5-dione] | 3.7 µM |
| Cc1cccc(CN2C(=O)CN(C(C)C)C(=O)C2c2ccc(Cl)cc2)c1 (stereo not shown) [Compound 304, 3-(4-chlorophenyl)-1-isopropyl-4-(3-methyl-benzyl)piperazine-2,5-dione] | 16.4 µM |
